Results reported in US20050208146A1, “Novel dosage and administration method for oral camptosar” (Pfizer Inc, priority 2003, published 2005).
Several values for one entry are separate records, joined by “and”; a condition that tells them apart may be missing. Equal values may be shown once. Entries after “also recorded” stand apart in the source; their conditions may differ.

Legend:
[1] = Comparison of exposure over 6-week period, oral vs IV irinotecan
[2] = Pharmacokinetics and absolute bioavailability at MTD, IV/oral cross-over in patients; conditions: for AUC(0-inf): 60 mg/m2, AUC0-inf; for Cmax: 60 mg/m2, Cmax
Procedure: (§1) The protocol had two stages, Stage A directed to dose escalation and Stage B directed to pharmacokinetics and bioavailability measurement. Patients were treated as in Table 3. […] MTD is defined as the dose level below which 2/3 or preferably 2/6 patients experience DLT.
(§2) In addition, evidence of antitumor activity can be evaluated.

[3] = Dose escalation to MTD, DLT and grade 3/4 toxicities of oral irinotecan semi-solid matrix capsules in patients with solid tumors; assay type: in vivo, human; conditions: for DLT (kind and grade) / Pts with DLT: first cycle
Procedure: Patients were treated as in Table 3. […]
Oral irinotecan can be formulated as follows.
The patients received starting doses of 50 (n=7), 60 (n=32), or 70 (n=4) mg/m^2/d. […] See also Tables 6 and 7.

clinical = conditions: human
solid tumors = assay: Best overall tumor response in patients treated with oral irinotecan; assay type: in vivo, human; conditions: oral irinotecan daily x5 q 3 weeks
Procedure: as §1, §2

[4] = IV Irinotecan, weekly x 4 q 6 weeks x 1 cycle, N=99
[5] = plasma, irinotecan 60 mg/m^2 IV, N=14
[6] = plasma, irinotecan 60 mg/m^2 PO, N=14
[7] = All Cycles, 60 mg/m^2/day, N=32

With `CCc1c2c(nc3ccc(O)cc13)-c1cc3c(c(=O)n1C2)COC(=O)[C@]3(O)CC` [SN-38, 7-ethyl-10-hydroxycamptothecin] the “AUC0-inf, exposure over 6-week period” value [1, 4] was 1,068 ng h/ml, the Cmax [1, 4] was 28 ng/mL and the Cmax ([1]; Oral Irinotecan, daily x 5 q 3 weeks x 2 cycles, N=14) was 7.2 ng/mL. For the same compound, the “AUC0-inf, mean ± SD” value ([2]; irinotecan 60 mg/m^2 IV, N=14) was 167 ± 77.8 ng·h/mL, the “AUC0-inf, median” value ([2]; irinotecan 60 mg/m^2 IV, N=14) was 169 ng·h/mL and the “AUC0-inf, range” value ([2]; irinotecan 60 mg/m^2 IV, N=14) was 55.1 to 358 ng·h/mL. The “t1/2, mean ± SD” value ([2]; irinotecan 60 mg/m^2 IV, N=14) was 22.95 ± 19.41 h, the “t1/2, median” value ([2]; irinotecan 60 mg/m^2 IV, N=14) was 19.31 h and the “t1/2, range” value ([2]; irinotecan 60 mg/m^2 IV, N=14) was 8.63 to 94.9 h. The “tmax, median” value ([2]; irinotecan 60 mg/m^2 IV, N=14) was 0.5 h, the “tmax, range” value ([2]; irinotecan 60 mg/m^2 IV, N=14) was 0 to 2.0 h and the “tmax, mean ± SD” value ([2]; irinotecan 60 mg/m^2 IV, N=14, measured from start of 1.5-h infusion) was 2.18 ± 1.99^2 h. For the same compound, the “PO/IV SN-38 AUC Ratio, Mean ± SD” value ([2]; irinotecan 60 mg/m^2 PO vs IV) was 0.504±0.195, the “PO/IV SN-38 AUC Ratio, Median” value ([2]; irinotecan 60 mg/m^2 PO vs IV) was 0.447 and the “PO/IV SN-38 AUC Ratio, range” value ([2]; irinotecan 60 mg/m^2 PO vs IV) was 0.257-0.945. For the same compound, the “AUC0-inf, mean ± SD” value ([2]; irinotecan 60 mg/m^2 PO, N=14) was 84.1 ± 54.7 ng·h/mL, the “AUC0-inf, median” value ([2]; irinotecan 60 mg/m^2 PO, N=14) was 70.7 ng·h/mL and the “AUC0-inf, range” value ([2]; irinotecan 60 mg/m^2 PO, N=14) was 22.8 to 223.6 ng·h/mL. The “t1/2, mean ± SD” value ([2]; irinotecan 60 mg/m^2 PO, N=14) was 14.2 ± 5.87 h, the “t1/2, median” value ([2]; irinotecan 60 mg/m^2 PO, N=14) was 13.4 h and the “t1/2, range” value ([2]; irinotecan 60 mg/m^2 PO, N=14) was 4.7 to 25.7 h. The “tmax, mean ± SD” value ([2]; irinotecan 60 mg/m^2 PO, N=14) was 2.97 ± 2.21 h, the “tmax, median” value ([2]; irinotecan 60 mg/m^2 PO, N=14) was 2 h and the “tmax, range” value ([2]; irinotecan 60 mg/m^2 PO, N=14) was 1.0 to 10.0 h. The “AUC of SN-38 following oral irinotecan as % of the value from an equivalent IV dose (mean±SD)” value ([2]; oral vs equivalent IV dose of irinotecan) was 50±20%, the “Cmax, mean ± SD” value [2, 5] was 15.94 ± 7.83 ng/mL and the “Cmax, median” value [2, 5] was 13.8 ng/mL. For the same compound, the “Cmax, range” value [2, 5] was 7.26 to 36.9 ng/mL, the “Cmax, mean ± SD” value [2, 6] was 7.17 ± 3.90 ng/mL and the “Cmax, median” value [2, 6] was 3.91 ng/mL. For the same compound, the “Cmax, range” value [2, 6] was 1.31 to 14.8 ng/mL.

With `CCc1c2c(nc3ccc(OC(=O)N4CCC(N5CCCCC5)CC4)cc13)-c1cc3c(c(=O)n1C2)COC(=O)[C@]3(O)CC` [irinotecan, 7-ethyl-10-[4-(1-piperidino)-1-piperidino]-carbonyloxycamptothecin] the “Grade 3 and 4 Diarrhea” value ([3]; All Cycles, 50 mg/m^2/day, N=7) was 14%, the “Grade 3 and 4 Nausea” value ([3]; All Cycles, 50 mg/m^2/day, N=7) was 14% and the “Grade 3 and 4 Diarrhea” value [3, 7] was 16%. The “Grade 3 and 4 Nausea” value [3, 7] was 9%, the “Grade 3 and 4 Neutropenia” value [3, 7] was 9% and the “Grade 3 and 4 Neutropenic Fever” value [3, 7] was 3%. For the same compound, the “Grade 3 and 4 Vomiting” value [3, 7] was 12%, the “Grade 3 and 4 Diarrhea” value ([3]; All Cycles, 70 mg/m^2/day, N=4) was 50% and the “Grade 3 and 4 Nausea” value ([3]; All Cycles, 70 mg/m^2/day, N=4) was 3%. The “Grade 3 and 4 Neutropenia” value ([3]; All Cycles, 70 mg/m^2/day, N=4) was 25%, the “Grade 3 and 4 Neutropenic Fever” value ([3]; All Cycles, 70 mg/m^2/day, N=4) was 25% and the “Grade 3 and 4 Vomiting” value ([3]; All Cycles, 70 mg/m^2/day, N=4) was 3%. The “Grade 3 and 4 Diarrhea” value ([3]; Cycle 1, 50 mg/m^2/day, N=7) was 14%, the “Grade 3 and 4 Nausea” value ([3]; Cycle 1, 50 mg/m^2/day, N=7) was 14% and the “Grade 3 and 4 Diarrhea” value ([3]; Cycle 1, 60 mg/m^2/day, N=32) was 13%. For the same compound, the “Grade 3 and 4 Nausea” value ([3]; Cycle 1, 60 mg/m^2/day, N=32) was 6%, the “Grade 3 and 4 Neutropenia” value ([3]; Cycle 1, 60 mg/m^2/day, N=32) was 3% and the “Grade 3 and 4 Vomiting” value ([3]; Cycle 1, 60 mg/m^2/day, N=32) was 9%. For the same compound, the “Grade 3 and 4 Diarrhea” value ([3]; Cycle 1, 70 mg/m^2/day, N=4) was 50%, the “Grade 3 and 4 Neutropenia” value ([3]; Cycle 1, 70 mg/m^2/day, N=4) was 25% and the “Grade 3 and 4 Neutropenic Fever” value ([3]; Cycle 1, 70 mg/m^2/day, N=4) was 25%. For the same compound, the “recommended phase 11 dose” value ([3]; SSM oral irinotecan, for 5 days every 3 wks) was 60 mg/m^2/daily, the “DLT (kind and grade)” value ([3]; Stage A, 50 mg/m^2/day oral) was “G3 diarrhea, G3 nausea, G3 dehydration; also recorded: Gr. 3 Nausea; also recorded: Gr. 3 Diarrhea; also recorded: Gr. 3 Dehydration” and the “Pts with DLT” value ([3]; Stage A, 50 mg/m^2/day oral, 7 evaluable) was 1/7 and 1. The “DLT (kind and grade)” value ([3]; Stage A, 60 mg/m^2/day oral) was “None”, the “Pts with DLT” value ([3]; Stage A, 60 mg/m^2/day oral, 8 evaluable) was 0/8 and 0 and the “DLT (kind and grade)” value ([3]; Stage A, 70 mg/m^2/day oral) was “G3 diarrhea, G4 ANC [absolute neutrophil counts]; G4 diarrhea, fever, dehydration, fatigue; also recorded: Pt 1: gr. 3 Diarrhea,; also recorded: Pt 2: gr. 4 Diarrhea,; also recorded: gr. 4 Dehydration”. The “Pts with DLT” value ([3]; Stage A, 70 mg/m^2/day oral, 4 evaluable) was 2/4 and 2, the “DLT (kind and grade)” value ([3]; Stage B, 60 mg/m^2/day oral) was “Pt 1: Gr. 3 Diarrhea; also recorded: Pt 2: Gr. 3 Dehydration; also recorded: Pt 7: Gr. 3 Diarrhea” and the “Pts with DLT” value ([3]; Stage B, 60 mg/m^2/day oral, 24 evaluable) was 7. For the same compound, the MTD ([3]; oral, encapsulated semi-solid matrix, daily x5 q 3 weeks) was 60 mg/m^2/day, the AUC(0-inf) (clinical; in vivo, iv) was 42000 ng·h/mL and the Cmax (clinical; in vivo, iv) was 1500 ng/mL. For the same compound, the AUC(0-inf) (clinical; plasma, po, 60 mg/m^2/daily) was 7320 ng·h/mL, the Cmax (clinical; plasma, po, 60 mg/m^2/daily) was 73.1 ng/mL and the “best overall tumor response: partial responses” value (solid tumors; esophageal and small cell lung cancer) was “Two confirmed partial responses”. For the same compound, the “best overall tumor response: stable disease cases” value (solid tumors; variety of tumor types) was “thirteen stable disease cases”, the bioavailability ([2]; human, in vivo, Absolute bioavailabiity of irinotecan, Mean ± SD) was 24 ± 23% and the bioavailability ([2]; human, in vivo, Absolute bioavailabiity of irinotecan, Median) was 15.4%. The bioavailability ([2]; human, in vivo, Absolute bioavailabiity of irinotecan, range) was 7.1 to 96%, the Tmax ([2]; human, in vivo, iv, 60 mg/m2) was “End of 1.5-h” and the AUC(0-inf) ([2]; human, in vivo, iv, mean ± SD) was 3020 ± 830 ng·h/mL. For the same compound, the AUC(0-inf) ([2]; human, in vivo, iv, median) was 2610 ng·h/mL, the AUC(0-inf) ([2]; human, in vivo, iv, range) was 1720 to 4790 ng·h/mL and the Cmax ([2]; human, in vivo, iv, mean ± SD) was 627 ± 142 ng/mL. For the same compound, the Cmax ([2]; human, in vivo, iv, median) was 593 ng/mL, the Cmax ([2]; human, in vivo, iv, range) was 416 to 897 ng/mL and the “tmax, mean ± SD” value ([2]; human, in vivo, po, 60 mg/m2) was 3.15 ± 2.00 h. The AUC(0-inf) ([2]; human, in vivo, po, mean ± SD) was 732 ± 665 ng·h/mL, the AUC(0-inf) ([2]; human, in vivo, po, median) was 619 ng·h/mL and the AUC(0-inf) ([2]; human, in vivo, po, range) was 167 to 2500 ng·h/mL. For the same compound, the Cmax ([2]; human, in vivo, po, mean ± SD) was 73.1 ± 67.6 ng/mL, the Cmax ([2]; human, in vivo, po, median, plasma, irinotecan 60 mg/m^2 PO, N=14) was 60.1 ng/mL and the Cmax ([2]; human, in vivo, po, range, plasma, irinotecan 60 mg/m^2 PO, N=14) was 9.49 to 274 ng/mL. It also gave a Tmax ([2]; human, in vivo, po, 60 mg/m2, tmax, mean ± SD) of 3 ± 2.2 h, a Tmax ([2]; human, in vivo, po, 60 mg/m2, tmax, range) of 1 to 10 h and a bioavailability ([2]; human, in vivo, po, absolute bioavailability (mean±SD)) of 25 ± 23%.
